Data as given in US20230108004A1, “TREATMENT OF EPILEPSY WITH PLINABULIN OR HALIMIDE OR DIKETOPIPERAZINE DERIVATIVES” (Katholieke Universiteit Leuven, priority 2017, published 2023).

Assays:
[1] = system: PTZ-induced seizure behavior in zebrafish larvae; assay: Zebrafish pentylenetetrazole (PTZ) seizure model, behavioral analysis; assay type: in vivo, zebrafish (Danio rerio); conditions: 2 hours incubation; for antiseizure activity of the separated enantiomers: S-enantiomer only significant at 200 μg/mL (p<0.01)
Experimental: Experiments were performed as described in Copmans et al. (2018) Neurochem. Int. 112, 124-133; Afrikanova et al (2013) PLoS One 8, e54166 and Orellana-Paucar et al. (2012) Epilepsy Behav 24, 14-22. In brief, a single 7 dpf larva was placed in each well of a 96-well plate and treated with either VHC (1% DMSO) or test compound (1% DMSO) in a 100 μL volume. Larvae were incubated in dark for 2 hours at 28° C., whereafter 100 μL of either VHC (embryo medium) or 40 mM PTZ (20 mM working concentration) was added to each well. Next, within 5 minutes the 96-well plate was placed in an automated tracking device (ZebraBox Viewpoint, France) and larval behavior was video recorded for 30 minutes. The complete procedure was performed in dark conditions using infrared light. Total locomotor activity was recorded by ZebraLab software (Viewpoint, France) and expressed in actinteg units, which is the sum of pixel changes detected during the defined time interval (5 minutes). Larval behavior was depicted as mean actinteg units per 5 minutes during the 30 minute recording period and over consecutive time intervals. Data are expressed as mean±SD for single experiments with regards to screening and as mean±SEM for single experiments and for independent experiments of which the means or data are pooled.
In the first secondary screen three replicate wells were used per sample (100 μg/mL) tested and each experimental plate contained 12 internal control wells. In the second secondary screen six replicate wells were used per sample and concentration tested (100, 33, and 11 μg/mL), again 12 internal control wells were used per experimental plate.

[2] = system: PTZ-induced epileptiform discharges in zebrafish larvae; assay: Zebrafish PTZ seizure model, electrophysiology (local field potential recordings from the optic tectum); assay type: in vivo, zebrafish (Danio rerio); conditions: 2 hours, 10 min recording
Experimental: Non-invasive LFP recordings were measured from the midbrain (optic tectum) of 7 dpf zebrafish larvae pre-incubated with VHC only, PTZ only, compound and VHC, or compound and PTZ [Zdebik, et al. (2013) PLoS One 8, 6e10. Experiments were performed as described in Copmans, et al. (2018) Neurochem. Int. 112, 124-133 and Copmans et al. (2018) ACS chemical neuroscience.]. In brief, larvae were incubated for approximately 2 hours with VHC (1% DMSO) or test compound (1% DMSO) in a 100 μL volume. After incubation, an equal volume of VHC (embryo medium) or 40 mM PTZ (20 mM working concentration) was added to the well for 15 minutes prior to recording. These steps occurred at 28° C., while further manipulation and electrophysiological recordings occurred at room temperature (±21° C.). The larva was embedded in 2% low melting point agarose (Invitrogen) and the signal electrode (an electrode inside a soda-glass pipet (1412227, Hilgenberg) pulled with a DMZ Universal Puller (Zeitz, Germany), diameter±20 microns, containing artificial cerebrospinal fluid (ACSF: 124 mM NaCl, 10 mM glucose, 2 mM KCl, 2 mM MgSO4, 2 mM CaCl2), 1.25 mM KH2PO4, and 26 mM NaHCO3, 300-310 mOsmols)) was positioned on the skin covering the optic tectum. A differential extracellular amplifier (DAGAN, USA) amplified the voltage difference between the signal (measured by the signal electrode) and the reference electrode. The differential signal was band pass filtered at 0.3-300 Hz and digitized at 2 kHz via a PCI-6251 interface (National instruments, UK) using WinEDR (John Dempster, University of Strathclyde, UK). A grounding electrode grounded the electrical system. All electrodes were connected with ACSF. Each recording lasted 600 seconds. Manual analysis was completed by quantification of the number, cumulative duration, and mean duration of epileptiform-like events with Clampfit 10.2 software (Molecular Devices Corporation, USA). An electrical discharge was considered epileptiform if it was a poly-spiking event comprising at least 3 spikes with a minimum amplitude of three times the baseline amplitude and a duration of at least 100 milliseconds. Data are expressed as mean±SD.

[3] = system: EKP-induced seizure behavior in zebrafish larvae; assay: Zebrafish ethyl ketopentenoate (EKP) seizure model, behavioral analysis; assay type: in vivo, zebrafish (Danio rerio)
Experimental: Experiments were performed as described in Zhang et al. (2017) Sci. Rep. 7, 7195. In brief, a single 7 dpf larva was placed in each well of a 96-well plate and treated with either VHC (1% DMSO) or test compound (1% DMSO) in a 100 μL volume. Larvae were incubated in dark for 2 hours at 28° C., whereafter 100 μL of either VHC (1% DMSO) or 1 mM EKP (1% DMSO, 500 μM working concentration) was added to each well. Next, within 5 minutes the 96-well plate was placed in an automated tracking device (ZebraBox Viewpoint, France) and larval behavior was video recorded for 30 minutes. The complete procedure was performed in dark conditions using infrared light. Total locomotor activity was recorded by ZebraLab software (Viewpoint, France) and expressed in actinteg units, which is the sum of pixel changes detected during the defined time interval (5 minutes). Larval behavior was depicted as mean actinteg units per 5 minutes during the 30 minute recording period and over consecutive time intervals. Data are pooled from independent experiments and expressed as mean±SEM.

[4] = system: EKP-induced epileptiform discharges in zebrafish larvae; assay: Zebrafish EKP seizure model, electrophysiology (local field potential recordings); assay type: in vivo, zebrafish (Danio rerio); conditions: 12.5 μg/mL, 2 hours; 10 min recording; p≤0.05
Experimental: Non-invasive LFP recordings were measured from the midbrain (optic tectum) of 7 dpf zebrafish larvae pre-incubated with VHC only, EKP only, compound and VHC, or compound and EKP. Larvae were incubated for approximately 2 hours with VHC (1% DMSO) or test compound (1% DMSO). After incubation, VHC (1% DMSO) or 1 mM EKP (1% DMSO, 500 μM working concentration) was added to the well for 15 minutes prior to recording. These steps occurred at 28° C., while further manipulation and electrophysiological recordings occurred at room temperature (±21° C.). The larva was embedded in 2% low melting point agarose (Invitrogen) and the signal electrode was positioned on the skin covering the optic tectum and electrophysiological recordings (room temperature) were performed as described above for the zebrafish PTZ seizure model and as described in Zhang et al. (2017) Sci. Rep. 7, 7195. Manual analysis was completed by quantification of the number, cumulative duration, and mean duration of epileptiform-like events with Clampfit 10.2 software (Molecular Devices Corporation, USA). An electrical discharge was considered epileptiform if it was a poly-spiking event comprising at least 3 spikes with a minimum amplitude of three times the baseline amplitude and a duration of at least 100 milliseconds. Data are expressed as mean±SD.

[5] = system: drug-resistant psychomotor seizures induced by corneal electrical stimulation; assay: Mouse 6-Hz (44 mA) psychomotor seizure model; assay type: in vivo, Male NMRI mice; conditions: 30 min before stimulation, VHC 28 s
Experimental: Experiments were performed as previously described. In brief, NMRI mice (average weight 32 g, range 28-36 g) were randomly divided into control and treatment groups (n=6-11). 50 μL (injection volume was adjusted to the individual weight) of VHC (PEG200:DMSO 1:1) or treatment (an ASD or test compound dissolved in VHC) was i.p. injected in mice and after 30 minutes psychomotor seizures were induced by low frequency, long duration corneal electrical stimulation (6 Hz, 0.2 ms rectangular pulse width, 3 s duration, 44 mA) using an ECT Unit 5780 (Ugo Basile, Comerio, Italy). Mice were manually restrained and a drop of ocular anesthetic (0.5% lidocaine) was applied to the corneas before stimulation. Following electrical current stimulation, the mouse was released in a transparent cage for behavioral observation, which was video-recorded. […] In addition, facial and mouth jerking as well as head nodding were observed occasionally. Seizure durations were measured during the experiment by experienced researchers, familiar with the different seizure behaviors. In addition, seizure durations were determined by blinded video analysis to confirm or correct the initial observations. Data are expressed as mean±SD.

zebrafish larvae = assay: Zebrafish toxicity evaluation: maximum tolerated concentration (MTC); assay type: in vivo, zebrafish (Danio rerio); conditions: highest concentration without death, toxicity or locomotor impairment
Experimental: Maximum tolerated concentration (MTC) was determined prior to further experiments and used as the highest test concentration. Experiments were performed as described in Copmans et al. (2018) Neurochem. Int. 112, 124-133. before. In brief, the MTC was investigated by exposing 12 larvae of 6 or 7 dpf to a range of concentrations in a 100 μL volume during 18 hours. The following parameters were investigated after 2 and 18 hours of exposure: touch response, morphology, posture, edema, signs of necrosis, swim bladder, and heartbeat. […] In case no MTC was reached, the highest soluble concentration was used.
Maximum tolerated concentration (MTC) was determined prior to further experiments and used as the highest test concentration. Experiments were performed as described in Copmans et al. (2018). Neurochem. Int. 112, 124-133. In brief, the MTC was investigated by exposing 12 larvae of 7 dpf to a range of concentrations in a 100 μL volume during 18 hours. The following parameters were investigated after 2 and 18 hours of exposure: touch response, morphology, posture, edema, signs of necrosis, swim bladder, and heartbeat.

## CC(C)(C)c1[nH]cnc1/C=c1\[nH]c(=O)/c(=C/c2ccccc2)[nH]c1=O [plinabulin]
[1]; 1.56-12.5 μg/mL, 30 min recording, p≤0.01 (1.56), p≤0.001 (3.13, 6.25, 12.5) (FIG. 7A)
  PTZ-induced seizure behavior: significantly lowered
[1]; 12.5 and 3.13 μg/mL, 30 min recording period, p≤0.001 (FIG. 4C)
  PTZ-induced seizure behavior: significantly lowered
[2]; 12.5 μg/mL
  number of PTZ-induced epileptiform events: non-significantly lowered
  percentage of larvae with PTZ-induced epileptiform activity: non-significantly lowered
[2]; 12.5 μg/mL, p≤0.05
  cumulative duration of PTZ-induced epileptiform events: significantly lowered
[3]; 3.13, 6.25 and 12.5 μg/mL, compound+VHC, zebrafish EKP seizure model
  normal swimming behavior in comparison to VHC-treated larvae: significantly lowered
[3]; all concentrations tested (0.78-12.5 μg/mL), 2 hours incubation, 30 min recording (FIG. 7B)
  EKP-induced seizure behavior: significantly lowered
[4]
  cumulative duration of EKP-induced epileptiform events: significantly lowered
  lowering of the percentage of larvae with EKP-induced epileptiform activity: 40%
  number of EKP-induced epileptiform events: significantly lowered
[5]; 5 mg/kg i.p., not significant
  mean seizure duration: 21 s
[5]; 10 mg/kg i.p., p<0.05
  mean seizure duration: 12.5 s
[5]; 20 mg/kg i.p., p<0.01
  mean seizure duration: 15 s
[5]; 40 mg/kg i.p., p<0.05
  mean seizure duration: 15 s

## C=CC(C)(C)c1nc[nH]c1/C=C1\NC(=O)C(Cc2ccccc2)NC1=O (single isomer, unassigned) [S-enantiomer]
[1]
  antiseizure activity of the separated enantiomers: active

## C=CC(C)(C)c1nc[nH]c1/C=C1\NC(=O)C(Cc2ccccc2)NC1=O (stereo not drawn) [halimide]
Zebrafish larvae
  maximum tolerated concentration (MTC): 200 µg/mL
[1]; halimide at its MTC, 30 min recording period, p≤0.05
  PTZ-induced seizure behavior: significantly lowered
[2]; MTC (200 μg/mL), p≤0.001
  cumulative duration of PTZ-induced epileptiform events: significantly lowered
  lowering of the percentage of larvae with PTZ-induced epileptiform activity: ~60%
  number of PTZ-induced epileptiform events: significantly lowered

## C=CC(C)(C)c1[nH]cnc1C=C1NC(=O)C(Cc2ccccc2)NC1=O (single isomer, unassigned) [R-enantiomer]
[1]
  antiseizure activity of the separated enantiomers: no significant effect
